Data as given in patent US12599582B2, “Pyrrole compounds” (ALIGOS THERAPEUTICS, INC., priority 2019, dated 2026).

Tested on: HBV
Assay: HBV-DNA Antiviral Assay Using HepG2.2.15 Cells (extracellular HBV DNA by qPCR)
Assay type: cell-based, hepatitis B virus (HBV)
Conditions: HBV DNA inhibition, HepG2.2.15 cells, extracellular HBV DNA by qPCR; read-out: EC50
Method in brief: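 HepG2.2.15 cells were treated on day 1 with 8 concentrations (4-fold dilutions, duplicate; 0.5% DMSO), with compound-containing medium refreshed on day 4, at 37 °C. On day 7, supernatant HBV DNA was measured by qPCR against a plasmid standard curve, with inhibition normalised between DMSO and ETV controls. EC50/EC90 and CC50 (CellTiter-Glo ATP) came from variable-slope fits.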

In the case of `C#C[C@H](NC(=O)C(=O)c1c(C)c(C(=O)Nc2ccc(F)c(C#N)c2)n(C)c1C)C1COC1` [Compound 57], the EC50 is reported as < 1 nM.

Same assay, conditions: Hepatitis B virus; HBV DNA inhibition, HepG2.2.15 cells, extracellular HBV DNA by qPCR; read-out: EC50

First: C#CC1(NC(=O)C(=O)c2c(C)c(C(=O)Nc3ccc(Br)c(Cl)c3)n(C)c2C)CC(F)(F)C1 [Compound 134, N-(4-bromo-3-chloro-phenyl)-4-[2-[(1-ethynyl-3,3-difluoro-cyclobutyl)amino]-2-oxo-acetyl]-1,3,5-trimethyl-pyrrole-2-carboxamide]
Second: C#CC1(NC(=O)C(=O)c2c(C)c(C(=O)Nc3ccc(F)c(C#N)c3)n(C)c2C)CCC1 [Compound 15, N-(3-cyano-4-fluoro-phenyl)-4-[2-[(1-ethynylcyclobutyl)amino]-2-oxo-acetyl]-1,3,5-trimethyl-pyrrole-2-carboxamide]
The EC50 of the first is higher: 1 to 10 nM for the first, < 1 nM for the second. The second is the more potent here.

First: C#C[C@H](NC(=O)C(=O)c1c(C)c(C(=O)Nc2ccc(F)c(C(F)(F)F)c2)n(C)c1C)C1CC1 [Compound 38a, N-[4-fluoro-3-(trifluoromethyl)phenyl]-1,3,5-trimethyl-4-[2-oxo-2-[[(1R)-1-cyclopropylprop-2-ynyl]amino]acetyl]pyrrole-2-carboxamide]
Second: C=C[C@@](C)(CO)NC(=O)C(=O)c1c(C)c(C(=O)Nc2ccc(F)c(C(F)(F)F)c2)n(C)c1C [Compound 69b, N-[4-fluoro-3-(trifluoromethyl)phenyl]-1,3,5-trimethyl-4-[2-oxo-2-[[(1S)-1-(hydroxymethyl)-1-methyl-allyl]amino]acetyl]pyrrole-2-carboxamide]
The EC50 of the first is lower: < 1 nM for the first, 1 to 10 nM for the second. The first is the more potent here.

First: Cc1c(C(=O)C(=O)NC(C)(C)c2cnn(C)c2)c(C)n(C)c1C(=O)Nc1ccc(F)c(C(F)(F)F)c1 [Compound 98, N-[4-fluoro-3-(trifluoromethyl)phenyl]-1,3,5-trimethyl-4-[2-[[1-methyl-1-(1-methylpyrazol-4-yl)ethyl]amino]-2-oxo-acetyl]pyrrole-2-carboxamide]
Second: Cc1c(C(=O)C(=O)NC(C)(C)c2ccncc2)c(C)n(C)c1C(=O)Nc1ccc(F)c(C(F)(F)F)c1 [Compound 101, N-[4-fluoro-3-(trifluoromethyl)phenyl]-1,3,5-trimethyl-4-[2-[[1-methyl-1-(4-pyridyl)ethyl]amino]-2-oxo-acetyl]pyrrole-2-carboxamide]
The EC50 of the first is lower: < 1 nM for the first, 1 to 10 nM for the second.

First: Cc1c(C(=O)C(=O)NC2(c3cn[nH]c3)COC2)c(C)n(C)c1C(=O)Nc1ccc(F)c(C(F)(F)F)c1 [Compound 158, N-[4-fluoro-3-(trifluoromethyl)phenyl]-1,3,5-trimethyl-4-[2-oxo-2-[[3-(1H-pyrazol-4-yl)oxetan-3-yl]amino]acetyl]pyrrole-2-carboxamide]
Second: Cc1c(C(=O)C(=O)NC(C)(C)c2nccs2)c(C)n(C)c1C(=O)Nc1ccc(F)c(C(F)(F)F)c1 [Compound 103, N-[4-fluoro-3-(trifluoromethyl)phenyl]-1,3,5-trimethyl-4-[2-[(1-methyl-1-thiazol-2-yl-ethyl)amino]-2-oxo-acetyl]pyrrole-2-carboxamide]
The EC50 of the first is lower: < 1 nM for the first, 1 to 10 nM for the second.

`Cc1cc(NC(=O)c2c(C)c(C(=O)C(=O)NC(C)(C)c3ccc4[nH]cnc4c3)c(C)n2C)ccc1F` [Compound 162, 4-[2-[[1-(1H-benzimidazol-5-yl)-1-methyl-ethyl]amino]-2-oxo-acetyl]-N-(4-fluoro-3-methyl-phenyl)-1,3,5-trimethyl-pyrrole-2-carboxamide] and `Cc1c(C(=O)C(=O)NC(C)(C)c2ccc3[nH]cnc3c2)c(C)n(C)c1C(=O)Nc1ccc(F)c(C#N)c1` [Compound 160, 4-[2-[[1-(1H-benzimidazol-5-yl)-1-methyl-ethyl]amino]-2-oxo-acetyl]-N-(3-cyano-4-fluoro-phenyl)-1,3,5-trimethyl-pyrrole-2-carboxamide] fall in the same range of EC50: 1 to 10 nM for the first, 1 to 10 nM for the second.

First: Cc1c(C(=O)C(=O)NC2(C#C[C@@H](C)O)COC2)c(C)n(C)c1C(=O)Nc1ccc(F)c(C#N)c1 [Compound 94a, N-(3-cyano-4-fluoro-phenyl)-1,3,5-trimethyl-4-[2-oxo-2-[[3-[(3R)-3-hydroxybut-1-ynyl]oxetan-3-yl]amino]acetyl]pyrrole-2-carboxamide]
Second: C#CC1(NC(=O)C(=O)c2c(F)c(C(=O)Nc3ccc(F)c(C#N)c3)n(C)c2C)COC1 [Compound 55, N-(3-cyano-4-fluoro-phenyl)-4-[2-[(3-ethynyloxetan-3-yl)amino]-2-oxo-acetyl]-3-fluoro-1,5-dimethyl-pyrrole-2-carboxamide]
The EC50 of the first is higher: 10 to 100 nM for the first, < 1 nM for the second.

`C=C[C@](C)(NC(=O)C(=O)c1c(C)c(C(=O)Nc2ccc(F)c(C#N)c2)n(C)c1C)C(F)(F)F` [Compound 95b, N-(3-cyano-4-fluoro-phenyl)-1,3,5-trimethyl-4-[2-oxo-2-[[(1S)-1-methyl-1-(trifluoromethyl)allyl]amino]acetyl]pyrrole-2-carboxamide] and `C=C[C@@](C)(NC(=O)C(=O)c1c(C)c(C(=O)Nc2ccc(F)c(C#N)c2)n(C)c1C)C(F)(F)F` [Compound 95a, N-(3-cyano-4-fluoro-phenyl)-1,3,5-trimethyl-4-[2-oxo-2-[[(1R)-1-methyl-1-(trifluoromethyl)allyl]amino]acetyl]pyrrole-2-carboxamide] fall in the same range of EC50: 1 to 10 nM for the first, 1 to 10 nM for the second.

`C#CC1(NC(=O)C(=O)c2c(C)c(C(=O)Nc3ccc(F)c(C#N)c3)n(C)c2C)CCCC1` [Compound 109, N-(3-cyano-4-fluoro-phenyl)-4-[2-[(1-ethynylcyclopentyl)amino]-2-oxo-acetyl]-1,3,5-trimethyl-pyrrole-2-carboxamide] and `C#CC1(NC(=O)C(=O)c2c(C)c(C(=O)Nc3ccc(F)c(F)c3)n(C)c2C)CCCCC1` [Compound 87, N-(3,4-difluorophenyl)-4-[2-[(1-ethynylcyclohexyl)amino]-2-oxo-acetyl]-1,3,5-trimethyl-pyrrole-2-carboxamide] fall in the same range of EC50: 1 to 10 nM for the first, 1 to 10 nM for the second.

`C#C[C@@](CO)(NC(=O)C(=O)c1c(C)c(C(=O)Nc2ccc(F)c(C#N)c2)n(C)c1C)C1CC1` [Compound 63b, N-(3-cyano-4-fluoro-phenyl)-1,3,5-trimethyl-4-[2-oxo-2-[[(1S)-1-cyclopropyl-1-(hydroxymethyl)prop-2-ynyl]amino]acetyl]pyrrole-2-carboxamide] and `C#C[C@](CO)(NC(=O)C(=O)c1c(C)c(C(=O)Nc2ccc(F)c(C#N)c2)n(C)c1C)C(F)(F)F` [Compound 71a, N-(3-cyano-4-fluoro-phenyl)-1,3,5-trimethyl-4-[2-oxo-2-[[(1R)-1-(hydroxymethyl)-1-(trifluoromethyl)prop-2-ynyl]amino]acetyl]pyrrole-2-carboxamide] fall in the same range of EC50: 1 to 10 nM for the first, 1 to 10 nM for the second.

First: C#CCNC(=O)C(=O)c1cc(C(=O)Nc2ccc(F)c(C#N)c2)n(C)c1C [Compound 27, N-(3-cyano-4-fluoro-phenyl)-1,5-dimethyl-4-[2-oxo-2-(prop-2-ynylamino)acetyl]pyrrole-2-carboxamide]
Second: C#CCNC(=O)C(=O)c1cc(C(=O)Nc2ccc(F)c(C#N)c2)n(C)c1 [Compound 3, N-(3-cyano-4-fluoro-phenyl)-1-methyl-4-[2-oxo-2-(prop-2-ynylamino)acetyl]pyrrole-2-carboxamide]
The EC50 of the first is lower: 10 to 100 nM for the first, > 1000 nM for the second.

`C#CC1(N(COC(=O)[C@@H](N)C(C)C)C(=O)C(=O)c2c(C)c(C(=O)Nc3ccc(F)c(C#N)c3)n(C)c2C)COC1` [Compound 105, [[2-[5-[(3-cyano-4-fluoro-phenyl)carbamoyl]-1,2,4-trimethyl-pyrrol-3-yl]-2-oxo-acetyl]-(3-ethynyloxetan-3-yl)amino]methyl-(2S)-2-amino-3-methyl-butanoate] and `Cc1c(C(=O)C(=O)NCC#CC2CC2)c(C)n(C)c1C(=O)Nc1ccc(F)c(C#N)c1` [Compound 22, N-(3-cyano-4-fluoro-phenyl)-4-[2-(3-cyclopropylprop-2-ynylamino)-2-oxo-acetyl]-1,3,5-trimethyl-pyrrole-2-carboxamide] fall in the same range of EC50: 1 to 10 nM for the first, 1 to 10 nM for the second.

First: C=CC1(NC(=O)C(=O)c2c(C)c(C(=O)Nc3ccc(F)c(C#N)c3)n(C)c2Cl)COC1 [Compound 41, 5-chloro-N-(3-cyano-4-fluoro-phenyl)-1,3-dimethyl-4-[2-oxo-2-[(3-vinyloxetan-3-yl)amino]acetyl]pyrrole-2-carboxamide]
Second: C=CCNC(=O)C(=O)c1cn(C)c(C(=O)Nc2ccc(F)c(C#N)c2)c1F [Compound 7, 4-[2-(allylamino)-2-oxo-acetyl]-N-(3-cyano-4-fluoro-phenyl)-3-fluoro-1-methyl-pyrrole-2-carboxamide]
The EC50 of the first is lower: 1 to 10 nM for the first, 100 to 1000 nM for the second. The first is the more potent here.

`C#CCNC(=O)C(=O)c1c(C)c(C(=O)Nc2ccnc(Br)c2F)n(C)c1C` [Compound 4, N-(2-bromo-3-fluoro-4-pyridyl)-1,3,5-trimethyl-4-[2-oxo-2-(prop-2-ynylamino)acetyl]pyrrole-2-carboxamide] and `C#CC(C)(CC)NC(=O)C(=O)c1c(C)c(C(=O)Nc2ccc(F)c(F)c2)n(C)c1C` (stereo not drawn) [Compound 88, N-(3,4-difluorophenyl)-4-[2-[(1-ethyl-1-methyl-prop-2-ynyl)amino]-2-oxo-acetyl]-1,3,5-trimethyl-pyrrole-2-carboxamide] fall in the same range of EC50: 1 to 10 nM for the first, 1 to 10 nM for the second.

`Cc1c(C(=O)C(=O)NC(C)(C)c2cscn2)c(C)n(C)c1C(=O)Nc1ccc(F)c(C(F)(F)F)c1` [Compound 141, N-[4-fluoro-3-(trifluoromethyl)phenyl]-1,3,5-trimethyl-4-[2-[(1-methyl-1-thiazol-4-yl-ethyl)amino]-2-oxo-acetyl]pyrrole-2-carboxamide] and `C=C[C@@](CO)(NC(=O)C(=O)c1c(C)c(C(=O)Nc2ccc(F)c(C(F)(F)F)c2)n(C)c1C)C(F)(F)F` [Compound 80b, N-[4-fluoro-3-(trifluoromethyl)phenyl]-1,3,5-trimethyl-4-[2-oxo-2-[[(1S)-1-(hydroxymethyl)-1-(trifluoromethyl)allyl]amino]acetyl]pyrrole-2-carboxamide] fall in the same range of EC50: 1 to 10 nM for the first, 1 to 10 nM for the second.

For `Cc1c(C(=O)C(=O)NC(C)(C)c2cccnc2)c(C)n(C)c1C(=O)Nc1ccc(F)c(C#N)c1` [Compound 92, N-(3-cyano-4-fluoro-phenyl)-1,3,5-trimethyl-4-[2-[[1-methyl-1-(3-pyridyl)ethyl]amino]-2-oxo-acetyl]pyrrole-2-carboxamide], the EC50 was 1 to 10 nM.
